Results: ChEMBL document CHEMBL1201862, “PubChem BioAssay data set” (2004)
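Briefly, cells in 96-well plates were exposed to five compound concentrations for 48 h, and endpoints were estimated by linear interpolation. GI50 = concentration required for 50% inhibition of growth.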 The source made the active and inactive calls. No stated cut-off is given here; in the data, active = GI50 up to about 1.1 µM and inactive = higher.

Legend:
Experiment in all cases: DTP human tumour cell line panel, 48 h
MDA-MB-435 = tested on: MDA-MB-435
PC-3 = tested on: PC-3
T47D = tested on: T47D
ACHN = tested on: ACHN
OVCAR-5 = tested on: OVCAR-5
MCF7 = tested on: MCF7
MOLT-4 = tested on: MOLT-4
786-0 = tested on: 786-0
Hs-578T = tested on: Hs-578T
SR = tested on: SR
A498 = tested on: A498
Malme-3M = tested on: Malme-3M
EKVX = tested on: EKVX
OVCAR-3 = tested on: OVCAR-3
NCI-H23 = tested on: NCI-H23
SK-MEL-28 = tested on: SK-MEL-28
U-251 = tested on: U-251
UO-31 = tested on: UO-31
NCI-H522 = tested on: NCI-H522
RXF 393 = tested on: RXF 393

SMILES	GI50 (MDA-MB-435)	GI50 (PC-3)	GI50 (T47D)	GI50 (ACHN)	GI50 (OVCAR-5)	GI50 (MCF7)	GI50 (MOLT-4)	GI50 (786-0)	GI50 (Hs-578T)	GI50 (SR)	GI50 (A498)	GI50 (Malme-3M)	GI50 (EKVX)	GI50 (OVCAR-3)	GI50 (NCI-H23)	GI50 (SK-MEL-28)	GI50 (U-251)	GI50 (UO-31)	GI50 (NCI-H522)	GI50 (RXF 393)
O=[N+]([O-])c1ccc(C2=NOC(c3ccccc3)N2C23CC4CC(CC(C4)C2)C3)cc1 (stereo unspecified)	21.8 µM (inactive)	20.5 µM (inactive)	25.7 µM (inactive)	20.1 µM (inactive)	14.4 µM (inactive)	24.8 µM (inactive)	17.5 µM (inactive)	17.6 µM (inactive)	19.5 µM (inactive)	> 10 µM (inactive)	> 100 µM (inactive)	25.1 µM (inactive)	48.1 µM (inactive)	23.5 µM (inactive)	41 µM (inactive)	58.5 µM (inactive)	34.6 µM (inactive)	9.23 µM (inactive)	19 µM (inactive)	
C/C(=N\c1c2ccccc2nc2ccccc12)N(C)C	22.5 µM (inactive)	14.6 µM (inactive)	20.5 µM (inactive)	19.8 µM (inactive)	20.5 µM (inactive)	25.8 µM (inactive)	12.2 µM (inactive)	24.2 µM (inactive)	22 µM (inactive)	3.47 µM (inactive)		32.9 µM (inactive)	32.7 µM (inactive)	14.4 µM (inactive)	15.2 µM (inactive)	18.4 µM (inactive)	23 µM (inactive)	9.64 µM (inactive)	10.7 µM (inactive)	23.8 µM (inactive)
Nc1ccc(S2(c3ccc(N)cc3)C=C(c3ccccc3)C(c3ccccc3)=C2)cc1	> 35.9 µM (inactive)	> 25.2 µM (inactive)	> 100 µM (inactive)	> 28.6 µM (inactive)	> 65.6 µM (inactive)	> 32.1 µM (inactive)	> 73.8 µM (inactive)	24 µM (inactive)	> 100 µM (inactive)	> 45.5 µM (inactive)	> 29.4 µM (inactive)	> 100 µM (inactive)	> 100 µM (inactive)	> 100 µM (inactive)	> 47.2 µM (inactive)	> 31.1 µM (inactive)	> 25 µM (inactive)	> 40.6 µM (inactive)		> 26.9 µM (inactive)
C[C@H]1O[C@@H](C(C)(C)C)OC(=O)[C@@H]1C(OC(=O)c1ccccc1)c1cccc2ccccc12 (stereo partly specified)	> 100 µM (inactive)	> 100 µM (inactive)	64.1 µM (inactive)	> 100 µM (inactive)	> 100 µM (inactive)	> 100 µM (inactive)	> 100 µM (inactive)	> 100 µM (inactive)	40.7 µM (inactive)	48.4 µM (inactive)		> 100 µM (inactive)	> 100 µM (inactive)	> 100 µM (inactive)	> 100 µM (inactive)	> 100 µM (inactive)	> 100 µM (inactive)	> 100 µM (inactive)	> 100 µM (inactive)	> 100 µM (inactive)
C=C1CC(C)(COc2cc(=O)oc3ccccc23)OC1=O (stereo unspecified)	5.53 µM (inactive)	4.11 µM (inactive)	2.48 µM (inactive)	5.21 µM (inactive)	7.78 µM (inactive)	1.74 µM (inactive)	1.94 µM (inactive)	2.84 µM (inactive)	7.74 µM (inactive)	2.88 µM (inactive)	2.91 µM (inactive)	2.04 µM (inactive)	12.3 µM (inactive)	3.96 µM (inactive)	3.87 µM (inactive)	3.05 µM (inactive)	14.3 µM (inactive)	12.1 µM (inactive)	1.8 µM (inactive)	
CC1=C(/C=C/Cl)CC(Cl)C(C)(Cl)C1 (stereo unspecified)	> 100 µM (inactive)	> 100 µM (inactive)	> 100 µM (inactive)	> 100 µM (inactive)	> 100 µM (inactive)	40 µM (inactive)	63.5 µM (inactive)	> 100 µM (inactive)	> 100 µM (inactive)	> 100 µM (inactive)	> 100 µM (inactive)	> 100 µM (inactive)	> 100 µM (inactive)		> 100 µM (inactive)	> 100 µM (inactive)	> 100 µM (inactive)	> 100 µM (inactive)	91.2 µM (inactive)	10.6 µM (inactive)
COc1cc(COC(=O)N[C@H](C(=O)O)C(C)(C)C)c([N+](=O)[O-])cc1OC	> 100 µM (inactive)	> 100 µM (inactive)	> 100 µM (inactive)	> 100 µM (inactive)	> 100 µM (inactive)	> 100 µM (inactive)	> 100 µM (inactive)	> 100 µM (inactive)	> 100 µM (inactive)	> 100 µM (inactive)	> 100 µM (inactive)	> 100 µM (inactive)	> 100 µM (inactive)	> 100 µM (inactive)	> 100 µM (inactive)	> 100 µM (inactive)	> 100 µM (inactive)	> 100 µM (inactive)		> 100 µM (inactive)
COC(CC1(CCNc2ccccc2)C(=O)N(COCC[Si](C)(C)C)c2ccccc21)OC (stereo unspecified)	13.3 µM (inactive)	11.8 µM (inactive)	20.3 µM (inactive)	17.9 µM (inactive)	16.6 µM (inactive)	10.4 µM (inactive)	> 43.7 µM (inactive)	6.25 µM (inactive)	18 µM (inactive)	> 32.8 µM (inactive)	21.1 µM (inactive)		17.8 µM (inactive)	15.6 µM (inactive)	16.5 µM (inactive)	6.98 µM (inactive)	18.2 µM (inactive)	13.9 µM (inactive)	11.9 µM (inactive)	12.5 µM (inactive)
CN(C)Cc1ccc(-c2cc3onc(-c4ccccc4)c3c(=O)n2C)cc1	19.2 µM (inactive)	39.8 µM (inactive)	20 µM (inactive)	67.5 µM (inactive)	40.6 µM (inactive)	41.2 µM (inactive)	17.8 µM (inactive)	17.3 µM (inactive)	19.6 µM (inactive)	11.7 µM (inactive)	22.6 µM (inactive)	29 µM (inactive)	> 100 µM (inactive)	37.4 µM (inactive)	29.6 µM (inactive)	18.9 µM (inactive)	22 µM (inactive)	11.6 µM (inactive)	18.7 µM (inactive)	
C(=N\Nc1nnc(-c2nnc(N/N=C/c3ccccc3)o2)o1)/c1ccccc1	> 10 µM (inactive)	> 10 µM (inactive)	> 10 µM (inactive)	> 10 µM (inactive)	> 10 µM (inactive)	> 10 µM (inactive)	> 10 µM (inactive)	> 10 µM (inactive)	6.19 µM (inactive)	> 10 µM (inactive)	> 10 µM (inactive)	> 10 µM (inactive)	> 10 µM (inactive)	> 10 µM (inactive)	> 10 µM (inactive)	> 10 µM (inactive)	> 10 µM (inactive)	> 10 µM (inactive)		> 10 µM (inactive)
CCCn1c(=O)c2nn3c(=O)n(CCC)c(=O)c3nn2c1=O	> 100 µM (inactive)	> 100 µM (inactive)	> 100 µM (inactive)	> 100 µM (inactive)	> 100 µM (inactive)	> 100 µM (inactive)	> 100 µM (inactive)	> 100 µM (inactive)	> 100 µM (inactive)	> 100 µM (inactive)		> 100 µM (inactive)	> 100 µM (inactive)	> 100 µM (inactive)	> 100 µM (inactive)	> 100 µM (inactive)	> 100 µM (inactive)	> 100 µM (inactive)	> 100 µM (inactive)	> 100 µM (inactive)
O=C(C=P(c1ccccc1)(c1ccccc1)c1ccccc1)c1ccc(-c2ccc(F)cc2F)cc1	2.28 µM (inactive)	3.38 µM (inactive)	2.33 µM (inactive)	2.44 µM (inactive)	2.96 µM (inactive)	2.55 µM (inactive)	1.83 µM (inactive)	3.56 µM (inactive)	3.97 µM (inactive)	3.44 µM (inactive)	2.64 µM (inactive)	2.72 µM (inactive)	3.17 µM (inactive)	1.95 µM (inactive)	3.22 µM (inactive)	2.95 µM (inactive)	3.41 µM (inactive)	1.77 µM (inactive)		2.64 µM (inactive)
O=C(/C=C/c1cc(O)c(O)cc1O)OCCc1ccccc1	20.2 µM (inactive)	17.3 µM (inactive)	4.4 µM (inactive)	12.2 µM (inactive)	> 41.9 µM (inactive)	15 µM (inactive)	2.87 µM (inactive)	5.05 µM (inactive)	39.5 µM (inactive)	5.53 µM (inactive)	21.2 µM (inactive)	13.6 µM (inactive)	41.4 µM (inactive)	10.3 µM (inactive)	24.2 µM (inactive)	21 µM (inactive)	27.7 µM (inactive)	10.3 µM (inactive)	2.28 µM (inactive)	
O=[N+]([O-])c1cc2no[n+]([O-])c2cc1N1CCCCC1	2.87 µM (inactive)	2.16 µM (inactive)	1.39 µM (inactive)	2.58 µM (inactive)	8.39 µM (inactive)	1.95 µM (inactive)	1.06 µM (active)	1.29 µM (inactive)	25.1 µM (inactive)	2.94 µM (inactive)	17.9 µM (inactive)		2.58 µM (inactive)	1.92 µM (inactive)	12.5 µM (inactive)	7.28 µM (inactive)	3.93 µM (inactive)	2.07 µM (inactive)	1.48 µM (inactive)	1.51 µM (inactive)
